Data taken from patent publication US9517267B2, “Photodynamic diagnostic agent and photobleaching inhibitor” (SBI Pharmaceuticals Co., Ltd., priority 2012, dated 2016).
Entries after “also recorded” stand apart in the source; their conditions may differ.

Experiments:
[1] = Absorption spectrum 350 nm-750 nm of alkyl gallate solutions; assay type: physicochemical; settings: 50 mM alkyl gallate solution
Description: (2) Measurement of the absorption spectrum at 350 nm-750 nm was performed with 1000 μL of each alkyl gallate solution prepared in (1).
Since the fluorescent substance protoporphyrin IX (PpIX) has a sharp absorbance at around 400 nm, and a light at around 400 nm is employed as the excitation light, it was deemed possible that excitation of PpIX could be inhibited when employing butyl gallate.

[2] = Dissolution of alkyl gallates at 50 mM in Gly+PBS or DMSO; assay type: physicochemical; settings: for solubility in Gly+PBS solution: 0.3 mmol in 6 mL (50 mM) 50% glycerol PBS
Description: (§1) (1) In order to prepare 50 mM solutions of each alkyl gallate, 0.3 mmol of each alkyl gallate was placed in a 15 mL tube, and 6 mL of 50% glycerol PBS solution (a mixture of glycerol and PBS at a proportion of 1:1, hereinafter may be notated as “Gly+PBS” or “Gly+PBS solution”) or DMSO was added and dissolved.

[3] = Photobleaching inhibitory effect for porphyrins by each alkyl gallate in solution (Example 4); assay type: physicochemical; settings: 50 mM alkyl gallate, 1 μM PpIX; for t/2 of PpIX fluorescence intensity: excitation 402 nm, 0.4 mA, pseudo-first-order
Description: The photobleaching inhibitory effect for porphyrins by gallic acids was measured with the following procedure. Methyl gallate (MeG, from Wako, Cat. No. 134-09812), butyl gallate (BuG, from Wako, Cat. No. 322-67472), n-propyl gallate (PrG, from Wako, Cat. No. 162-06832), and octyl gallate (OcG, from Wako, Cat. No. 322-56482) were employed as gallic acids. The gallic acids employed here are all compounds having a linear alkyl.
as §1
(3) After dispensing 990 μL of alkyl gallate into a 2 mL vial, 10 μL of 100 μM PpIX was added (final concentration of PpIX at 1 μM).
(4) Measurement of the fluorescence spectrum was performed for each alkyl gallate+PpIX solution prepared in (3) with a simplified fluorescence measurement device. LED was employed as the light source, the wavelength of the excitation light employed was 402 nm, the output current was set at 0.4 mA, and the measurement interval was every 10 seconds until 180 seconds for measurement.
For each of the plots above in FIG. 14 and FIG. 15 when a Gly+PBS solution and a DMSO solution was employed as the solvent for gallic acid, the relative fluorescence intensity was calculated by setting the fluorescence intensity immediately post irradiation (0 seconds later) as 1, and the transition of fluorescence intensity of PpIX was plotted with the calculated relative intensity as the vertical axis as shown in FIG. 16 and FIG. 17, respectively. This transition of relative fluorescence intensity was treated as a pseudo-first-order reaction to determine the half-life, and shown in Table 2 and Table 3, respectively.

[4] = system: PpIX in MKN45 cells; assay: Photobleaching inhibitory effect for PpIX produced from ALA in cells with gallic acids or other reductants (Example 1); assay type: cell-based; settings: excitation 400 nm, fluorescence 635 nm; for photobleaching inhibitory effect for PpIX: 1 mM ALA 24 h, reductant in 50% glycerol PBS (NPG 2%, PPD 0.5%, DABCO 5%, Prolong Gold as sold), 0-180 s
Description: (§2) MKN45 cells were seeded in a 35 mm dish at 0.5×10^6 cells, and the culture medium on the 35 mm dish was 2 mL. Ten μL of 0.2 M ALA hydrochloride (5-aminolevulinic acid hydrochloride) solution was added to the 2 mL of culture medium in the 35 mm dish to achieve the final concentration of ALA in the culture medium at 1 mM. This 35 mm dish was cultured in a 5% CO2 incubator at 37° C. for 24 hours. The cells were then washed with 1 ml of PBS, 1 mL of each of the following reductant solutions (dissolved in 50% glycerol PBS solution) were added on ice, the cells were immediately scraped off with a cell scraper, and the cells were suspended by pipetting. The fluorescence intensity at 635 nm of each of these cell suspensions under the excitation light at 400 nm was measured. The fluorescence intensity was measured from 0 seconds post irradiation of excitation light for every 10 seconds until 180 seconds post irradiation. Not limited to Example 1, the measurement of fluorescence intensity was performed with irradiation of the excitation light even after the 0 seconds post irradiation of excitation light.
The following were employed at the following final concentrations as each reductant:
Paraphenylenediamine (hereinafter abbreviated as “PPD”): 0.5%
n-propyl gallate (hereinafter abbreviated as “NPG”): 2%
1-4-diazabicyclo[2.2.2]-octane (hereinafter abbreviated as “DABCO”): 5%
Prolong Gold™: approximately 1% as the active ingredient sodium azide
Since Prolong Gold (an anti-fade agent from Invitrogen) was sold as a solution containing approximately 1% of sodium azide, it was added directly as the commercially available solution without employing 50% glycerol/PBS to carry out the investigation.

[5] = system: PpIX in MKN45 cells; assay: PpIX fluorescence half-life in ALA-loaded cells with 1% NPG at varied excitation light intensity (Example 3); assay type: cell-based
Description: as §2
In a method similar to Example 1, 1 mL of 1% n-propyl gallic acid (NPG) solution was added, and the intensity of the excitation light was altered to 0.1 mA, 0.2 mA, 0.3 mA, and 0.4 mA to measure the fluorescence intensity.

[6] = system: PpIX in MKN45 cells; assay: Photobleaching inhibitory effect for PpIX produced from ALA in cells with other reductants (Example 2); assay type: cell-based; settings: 1 mM ALA 24 h, ascorbic acid 500 μM, tocopherol 500 μM, lutein 10 μM in PBS, excitation 400 nm, fluorescence 635 nm, 0-180 s
Description: Photobleaching suppression effect for PpIX was measured for other reductants. The following were employed as the reductants. Each reductant solution was prepared by the following method and each of the prepared solutions was used as sample solvents for photobleaching measuring.
Solution supplemented with 5 μL of ascorbic acid (solvent: milli Q, concentration of supplemented solution: 100 mM) was added to 1 mL of PBS to prepare an ascorbic acid solution having a final concentration of 500 μM.
Solution supplemented with 5 μL of tocopherol (solvent: DMSO, concentration of supplemented solution: 100 mM) was added to 1 mL of PBS to prepare a tocopherol solution having a final concentration of 500 μM.
Solution supplemented with 5 μL of lutein (solvent: DMSO, concentration of supplemented solution: 2 mM) was added to 1 mL of PBS to prepare a lutein solution having a final concentration of 10 μM.
MKN45 cells were seeded in a 35 mm dish at 0.5×10^6 cells, and the culture medium on the 35 mm dish was 2 mL. Ten μL of 0.2 M ALA hydrochloride (5-aminolevulinic acid hydrochloride) solution was added to the 2 mL of culture medium in the 35 min dish to achieve the final concentration of ALA in the culture medium at 1 mM. This 35 mm dish was cultured in a 5% CO2 incubator at 37° C. for 24 hours. The cells were then washed with 1 ml of PBS, and then 1 mL of each of the reductant solutions prepared as above were added, the cells were immediately scraped off with a cell scraper, and the cells were suspended by pipetting. The fluorescence intensity at 635 nm of each of these cell suspensions under the excitation light at 400 nm was measured. The fluorescence intensity was measured from 0 seconds post irradiation of excitation light for every 10 seconds until 180 seconds post irradiation. The measurement of fluorescence intensity was performed with irradiation of the excitation light even after the 0 seconds post irradiation of excitation light.

[7] = Gly + PBS solution, fluorescence 627 nm

Row | Compound | fluorescence intensity of PpIX after 30 seconds and 60 seconds relative to 0 seconds ([3]; DMSO solution) | t/2 of PpIX fluorescence intensity ([3]; DMSO, fluorescence 632 nm) | t/2 of PpIX fluorescence intensity [3, 7] | fluorescence intensity of PpIX after 30 seconds and 60 seconds relative to 0 seconds ([3]; Gly+PBS solution) | photobleaching inhibitory effect for PpIX [4] | effect of inhibiting photobleaching of PpIX [6] | other results
1 | CCCCOC(=O)c1cc(O)c(O)c(O)c1 [BuG, butyl gallate] | only modestly reduced | 533.2 s | 385.1 s | only modestly reduced | – | – | absorbance at around 400 nm [1]: found to have absorbance at around 400 nm; solubility in Gly+PBS solution [2]: able to dissolve; solubility in DMSO ([2]; 0.3 mmol in 6 mL (50 mM) DMSO): able to dissolve
2 | C1CN2CCN1CC2 [DABCO, 1-4-diazabicyclo[2.2.2]-octane] | – | – | – | – | insufficient; also recorded: no or almost no effect | – | –
3 | COC(=O)c1cc(O)c(O)c(O)c1 [MeG, Methyl gallate] | only modestly reduced | 239.0 s | 346.6 s | only modestly reduced | – | – | –
4 | CCCOC(=O)c1cc(O)c(O)c(O)c1 [NPG, n-propyl gallate] | only modestly reduced | 231.0 s | 239.0 s | only modestly reduced | superior photobleaching inhibitory effect was observed | – | fluorescence intensity after 180 seconds post irradiation, relative to control at 0 seconds ([4]; 1 mM ALA, NPG 2%): about half; duration of fluorescence in fluorescence microscope images ([5]; 1% NPG vs vehicle, 0, 1, 2, 3 minutes post irradiation (FIG. 4)): fluorescence was maintained for a longer duration; prolongation of half-life versus vehicle ([5]; excitation light 0.4 mA, NPG 1%): three folds
5 | CCCCCCCCOC(=O)c1cc(O)c(O)c(O)c1 [OcG, octyl gallate] | only modestly reduced | 239.0 s | – | – | – | – | solubility in Gly+PBS solution [2]: could not be dissolved
6 | Nc1ccc(N)cc1 [PPD, Paraphenylenediamine] | – | – | – | – | a state of high fluorescence intensity as with NPG could not be maintained; also recorded: no or almost no effect | – | fluorescence intensity at 0 seconds post irradiation of excitation light ([4]; 1 mM ALA, PPD 0.5%): markedly reduced
7 | O=C1O[C@H]([C@@H](O)CO)C(O)=C1O [ascorbic acid] | – | – | – | – | – | do not have the effect of inhibiting photobleaching; also recorded: no or almost no effect | –
8 | CC1=C[C@H](O)CC(C)(C)[C@H]1/C=C/C(C)=C/C=C/C(C)=C/C=C/C=C(C)/C=C/C=C(C)/C=C/C1=C(C)C[C@@H](O)CC1(C)C [lutein] | – | – | – | – | – | do not have the effect of inhibiting photobleaching | –
9 | tocopherol | – | – | – | – | – | do not have the effect of inhibiting photobleaching; also recorded: no or almost no effect | –
